The supplement of paper PMC11451515

Tested on: NOMO1
Experiment: cell viability relative to DMSO control; higher = less cytotoxic
Conditions: 48 h
Outline: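 Cells were incubated for 48 h at 37°C before CellTiter-Glo One luminescence was read. The cells were NOMO1 or SEM (500 cells/well) or P12-Ichikawa (1000 cells/well) leukemia cells, adapted for at least four passages in each medium and seeded in 1536-well plates (5 μl). Dosing used library compounds in DMSO applied by pin over 11 threefold points, 47 μM to 0.79 nM. Viability is the per-plate percentage of DMSO wells, with cell-free wells as background.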

[1] = HPLM + 10% dialyzed FBS, 0.000781 µM
[2] = HPLM + 10% dialyzed FBS, 0.00234 µM
[3] = HPLM + 10% dialyzed FBS, 0.00702 µM
[4] = HPLM + 10% dialyzed FBS, 0.0211 µM
[5] = HPLM + 10% dialyzed FBS, 0.0632 µM
[6] = HPLM + 10% dialyzed FBS, 0.19 µM
[7] = HPLM + 10% dialyzed FBS, 0.569 µM
[8] = HPLM + 10% dialyzed FBS, 1.71 µM
[9] = HPLM + 10% dialyzed FBS, 5.12 µM
[10] = HPLM + 10% dialyzed FBS, 15.4 µM
[11] = HPLM + 10% dialyzed FBS, 46.1 µM
[12] = RPMI 5 mM glucose + 10% FBS, 0.000781 µM
[13] = RPMI 5 mM glucose + 10% FBS, 0.00234 µM
[14] = RPMI 5 mM glucose + 10% FBS, 0.00702 µM
[15] = RPMI 5 mM glucose + 10% FBS, 0.0211 µM
[16] = RPMI 5 mM glucose + 10% FBS, 0.0632 µM
[17] = RPMI 5 mM glucose + 10% FBS, 0.19 µM
[18] = RPMI 5 mM glucose + 10% FBS, 0.569 µM
[19] = RPMI 5 mM glucose + 10% FBS, 1.71 µM
[20] = RPMI 5 mM glucose + 10% FBS, 5.12 µM
[21] = RPMI 5 mM glucose + 10% FBS, 15.4 µM
[22] = RPMI 5 mM glucose + 10% FBS, 46.1 µM
[23] = RPMI 5 mM glucose + 10% dialyzed FBS, 0.000781 µM
[24] = RPMI 5 mM glucose + 10% dialyzed FBS, 0.00234 µM
[25] = RPMI 5 mM glucose + 10% dialyzed FBS, 0.00702 µM
[26] = RPMI 5 mM glucose + 10% dialyzed FBS, 0.0211 µM
[27] = RPMI 5 mM glucose + 10% dialyzed FBS, 0.0632 µM
[28] = RPMI 5 mM glucose + 10% dialyzed FBS, 0.19 µM
[29] = RPMI 5 mM glucose + 10% dialyzed FBS, 0.569 µM
[30] = RPMI 5 mM glucose + 10% dialyzed FBS, 1.71 µM
[31] = RPMI 5 mM glucose + 10% dialyzed FBS, 5.12 µM
[32] = RPMI 5 mM glucose + 10% dialyzed FBS, 15.4 µM
[33] = RPMI 5 mM glucose + 10% dialyzed FBS, 46.1 µM

Compound	cell viability [1] [%]	cell viability [2] [%]	cell viability [3] [%]	cell viability [4] [%]	cell viability [5] [%]	cell viability [6] [%]	cell viability [7] [%]	cell viability [8] [%]	cell viability [9] [%]	cell viability [10] [%]	cell viability [11] [%]	cell viability [12] [%]	cell viability [13] [%]	cell viability [14] [%]	cell viability [15] [%]	cell viability [16] [%]	cell viability [17] [%]	cell viability [18] [%]	cell viability [19] [%]	cell viability [20] [%]	cell viability [21] [%]	cell viability [22] [%]	cell viability [23] [%]	cell viability [24] [%]	cell viability [25] [%]	cell viability [26] [%]	cell viability [27] [%]	cell viability [28] [%]	cell viability [29] [%]	cell viability [30] [%]	cell viability [31] [%]	cell viability [32] [%]	cell viability [33] [%]
COc1cc(C[C@@H](CO)[C@H](CO)Cc2ccc(O)c(OC)c2)ccc1O	97.7	99.3	97.2	123	112	122	126	108	107	101	104	107	118	101	111	103	108	106	97.2	104	94.4	102	95.8	111	113	107	118	110	107	107	104	103	112
NC(=O)N1CCC(CC(=O)N2CCC([C@H]3c4ncc(Br)cc4CCc4cc(Cl)cc(Br)c43)CC2)CC1	113	109	126	118	117	110	114	122	90	90	53.4	107	112	109	98.5	104	103	99.2	101	86.2	80.2	54.1	109	113	123	112	118	112	94	104	95.7	87.6	69.4
c1ccc2c(CN3CCNCC3)cccc2c1	99.6	113	124	106	112	121	113	112	104	99.7	93.7	103	124	115	117	117	126	115	133	110	99.9	51.6	108	113	106	117	115	122	129	122	116	91.7	64.9
CC(C)(C)NCC(O)c1ccc(O)c(CO)c1 (stereo not given)	100	109	109	132	119	114	107	70.5	55.5	47.8	44.7	102	98.3	105	106	112	99.9	107	79.2	78.1	64.7	51.4	102	109	115	114	110	110	92.8	76.7	65.3	70.7	47
NC[C@H](O)c1ccc(O)c(O)c1	115	117	119	104	120	104	90.7	85.7	97.7	86.9	72.4	96.7	86.8	112	95.7	105	91	87.3	91.2	99.2	97.5	78	93.2	90.3	99	91	88.1	85.4	86.6	93.4	83.3	88.6	87.7
COc1cc2c(cc1OC)CN(CCc1ccc(NC(=O)c3cccc4c(=O)c5cccc(OC)c5[nH]c34)cc1)CC2	97.2	96.8	114	121	122	121	109	45	29.8	16.8	11.3	123	112	127	118	119	116	122	112	62.8	23.7	14.1	112	114	127	113	130	130	133	133	52.3	35.2	24.2
CC[C@H](C)C(=O)O[C@H]1C[C@@H](C)\C=C2\C=C/[C@H](C)[C@H](CC[C@@H]3C[C@@H](O)CC(=O)O3)[C@@H]12	95.9	103	100	108	96.3	92.8	90.6	89.9	93.3	69.4	53.5	87.5	89.1	89.7	98.9	83.5	90	88.4	80.5	86.8	77.1	71.4	80.3	93	84.6	97	91.7	91	91.3	82	90.7	77.4	54.9
C[S+](=O)([O-])N1CCN(Cc2cc3nc(-c4cccc5[nH]ncc45)nc(N4CCOCC4)c3s2)CC1	–	–	–	–	–	–	–	–	–	–	–	113	133	116	132	128	133	117	107	80.3	80.6	65.5	–	–	–	–	–	–	–	–	–	–	–
CC1(C)[C@@H](O)CC[C@@]2(C)[C@H]1CC[C@]3(C)[C@@H]2C(=O)\C=C/4[C@@H]5C[C@](C)(CC[C@]5(C)CC[C@@]34C)C(O)=O	102	113	120	127	116	113	118	118	116	124	112	110	99.1	110	116	95.7	103	102	95	98.1	93.9	86.8	104	108	117	115	115	103	116	117	92	97.7	97.9
Cc1noc(N[S+](=O)([O-])c2ccc(N)cc2)c1C	92.3	91.3	109	97.9	95.6	101	109	114	96	92	104	98	92.7	88.6	89.5	108	102	113	111	106	91.6	104	92.3	90.7	71.5	92.6	89	89.7	92.6	96.2	90.3	94.6	81.4
CN1CCC(CNc2ccc3ncc(-c4cccc(OC(F)(F)F)c4)n3n2)CC1	101	106	112	113	97.8	125	114	104	91	70.7	5.88	87.2	83.3	85.2	99.5	89.4	91.4	97.9	85.8	85.6	73.5	5.17	116	93.1	97.1	88.2	99.4	97.5	104	94.9	79.3	68.5	4.98
COc1cccc(N(C)C(=S)Oc2ccc3c(c2)CCCC3)n1	93.3	95.6	118	89.1	111	102	101	110	108	102	99.6	85.4	88.1	87	82.2	103	90.8	91	88.1	103	92.2	105	82.3	98.9	94	84	99.5	97.7	103	94.2	105	108	101
O=C(NOCC1CC1)c1ccc(F)c(F)c1Nc1ccc(I)cc1Cl	97.2	109	123	115	99.1	91.7	74.7	68.5	52	49.3	41.4	84.5	91.6	100	112	95.1	93.8	73.5	83.5	56.9	46.9	50	95.7	108	97.2	107	92.4	86.8	82.1	75.6	44.2	42.8	44.4
C/C=C(\C)C(=O)N[C@@H](c1ccccc1)[C@@H](O)C(=O)O[C@H]1C[C@@]2(O)[C@@H](OC(=O)c3ccccc3)[C@@H]3[C@]4(OC(C)=O)CO[C@@H]4C[C@H](O)[C@@]3(C)C(=O)[C@H](OC(C)=O)C(=C1C)C2(C)C	25.1	23.3	26.8	30.3	29.7	27.4	23.4	26.9	24.1	28.9	20.7	38.9	13.2	17.4	13.8	14.7	14.3	13	15.6	12.4	11.3	9.52	47.4	17.8	21.3	20.2	17.5	20.3	17.2	16.1	19.8	21.3	16.6
